How the values were obtained:
[1] = test system: IL-6; conditions: CANTOS study, 4833 CAD patients; cited from earlier work
[2] = test system: patients suffering from CAD; conditions: CANTOS study patients with reduced circulating IL-6 levels; cited from earlier work
[3] = test system: IL-6; experiment: Clinical phase II study: IL-6 plasma concentration; format: in vivo, human
Protocol: (§1) In a clinical phase II study 119 patients with persistent atrial fibrillation were investigated with regard to the effect of treatment with Compound-02 (structure of general formula (VI)). The patients were divided into a placebo group and three treatment groups with different dosing of Compound-02. The low, medium and high dosing groups received an oral once daily dosing of 4 mg, 12 mg or 24 mg of Compound-02, respectively.
(§2) The study participants received an implantable cardiac monitor (ICM) at least one week prior to start of treatment with Compound-02. The treatment with Compound-02 was maintained for a total period of three months (i.e. Day 1 to Day 99) and started at least 1 week prior to direct current cardioversion (DCC) (see FIG. 1 for details of study protocol).
(§3) Plasma samples were taken from the patients at different study visits. Biomarkers were analyzed at baseline (V3) and at the end of treatment (V8). For 119 study participants complete sets of biomarkers could be obtained.

[4] = test system: PTX-3; experiment: Clinical phase II study: PTX-3 plasma concentration; format: in vivo, human; conditions: baseline to end-of-treatment (3 months); dose-dependent
Protocol: as §1, §2, §3

[5] = test system: GDF-15; experiment: Clinical phase II study: GDF-15 plasma concentration (sandwich ELISA); format: in vivo, human; conditions: baseline to end-of-treatment (3 months); dose-dependent
Protocol: as §1, §2, §3
GDF-15 concentrations were measured in EDTA treated plasma samples with a solid phase sandwich ELISA (Human GDF-15 Quantikine ELISA kit, R&D Systems) using an immobilized mouse monoclonal anti-GDF-15 and a horseradish peroxidase-conjugated monoclonal anti-GDF-15 antibody. […] The reaction product is measured spectrophotometrically at 450 nm (Sunrise Absorbance Reader, TECAN).

[6] = test system: patients with persistent atrial fibrillation; experiment: Clinical phase II study: safety; format: in vivo, human; conditions: oral once daily 4, 12 or 24 mg, three months
Protocol: as §1, §2

Compound | circulating IL-6 levels [1] | reduction in major adverse cardiac events (MACE) compared to the placebo group [2] | reduction of IL-6 plasma concentration vs. placebo ([3]; baseline to end-of-treatment (3 months), dose-dependent) | reduction of IL-6 levels in response to treatment ([3]; clinical study) | reduction of PTX-3 plasma concentration vs. placebo [4] | reduction of GDF-15 plasma concentration vs. placebo [5] | changes in the ECG or other types of arrhythmias [6] | safety profile [6]
Canakinumab: anti-IL-1β antibody that modulates the IL-6 pathway | reduces circulating IL-6 levels | 32% | – | – | – | – | – | –
CNC(=O)C(=O)NCCCC/C=C\CCCCCCCOCC(=O)O [Compound-02] | – | – | 30% | 25-40% | 55% | 30% | no changes | good safety profile
